# According to patent publication US20240018125A1, “CYCLIC ISOTHIOUREA DERIVATIVES AS CXCR4 MODULATORS” (ERMIUM THERAPEUTICS, priority 2020, published 2024):
# Where a name gives a salt, the structure may show the parent alone.
# Tests used:
# [1] = tested on: peripheral blood mononuclear cells (PBMCs) from healthy donors; assay: IFN production by R848-activated PBMCs, quantified with twINNE luciferase reporter cell line; type: cell-based, human; settings: Homo sapiens, PBMC; read-out: IC50 of anti-inflammatory activity (IFN production by activated PBMCs)
# Summary of the method: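 Healthy-donor PBMCs (4.10^6/mL, RPMI/10% FBS) were pre-treated with compound, then stimulated with R848 at 5 μg/mL for 24 h. Supernatants were put on twINNE cells, which carry luciferase under five ISREs, for 24 h, and Bright-Glo luminescence was read. IC50 values came from variable-slope dose-response fits.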
Structure (SMILES),melting point [°C],IC50 [1] [µM]
"Cl.c1ccc2c(c1)CN=C(SCCC1CCCC1)N2 [Example 197, 2-((2-cyclopentylethyl)thio)-1,4-dihydroquinazoline hydrochloride]",42 to 50,10 to 32
"COc1cc2nc3scc(CSC4=NCc5ccccc5N4)n3c2cc1OC.Cl [Example 97, 3-(((3,4-dihydroquinazolin-2-yl)thio)methyl)-6,7-dimethoxybenzo[4,5]imidazo[2,1-b]thiazole hydrochloride]",238 to 240,> 32
"Cl.c1ccc(CC2CN=C(SCc3cn4cccnc4n3)N2)cc1 (stereo not shown) [Example 51, 2-(((5-benzyl-4,5-dihydro-1H-imidazol-2-yl)thio)methyl)imidazo[1,2-a]pyrimidine hydrochloride]",100 to 115,> 32
"Cl.c1ccc2c(c1)CN=C(SCCCN1CCCC1)N2 [Example 136, 2-((3-(pyrrolidin-1-yl)propyl)thio)-1,4-dihydroquinazoline dihydrochloride]",178 to 182,≤ 10
COc1cc2nc3n(c2cc1OC)C(O)(CSC1=NCc2ccccc2N1)CS3.Cl (stereo not shown),235 to 240,
"Ic1cc2c(c(I)c1I)NC(SCCN1CCCC1)=NC2 (as salt: hydrochloride) [Example 134, 6,7,8-triiodo-2-((2-(pyrrolidin-1-yl)ethyl)thio)-1,4-dihydroquinazoline dihydrochloride]",190 to 195,
"CN1CCN=C1SCC1=CSC2=Nc3ccccc3CN12 (as salt: hydrochloride) [Example 36, 3-(((1-methyl-4,5-dihydro-1H-imidazol-2-yl)thio)methyl)-5H-thiazolo[2,3-b]quinazoline dihydrochloride]",247 to 248,
"CCCCC1CN=C(SCC2=CSC3=Nc4ccccc4CN23)N1 (stereo not shown) (as salt: hydrochloride) [Example 29, 3-(((5-butyl-4,5-dihydro-1H-imidazol-2-yl)thio)methyl)-5H-thiazolo[2,3-b]quinazoline dihydrochloride]",227 to 234,
"C1=C(CSC2=Nc3ccccc3C(c3ccccc3)N2)N2Cc3ccccc3CN=C2S1 (stereo not shown) (as salt: hydrochloride) [Example 27, 3-(((4-phenyl-3,4-dihydroquinazolin-2-yl)thio)methyl)-5,10-dihydrobenzo[e]thiazolo[3,2-a][1,3]diazepine dihydrochloride]",203 to 210,

# Further lines, with some results ahead:
melting point [°C],Structure (SMILES),IC50 [1] [µM]
82 to 88,"Cl.c1ccc2c(c1)CN=C(SCCN1CCc3ccccc31)N2 [Example 115, 2-((2-(indolin-1-yl)ethyl)thio)-1,4-dihydroquinazoline hydrochloride]",10 to 32
194 to 203,"C1=C(CSC2=NCc3cccnc3N2)N2Cc3ccccc3CN=C2S1.Cl.Cl.Cl [Example 31, 3-(((1,4-dihydropyrido[2,3-d]pyrimidin-2-yl)thio)methyl)-5,10-dihydrobenzo[e]thiazolo[3,2-a][1,3]diazepine trihydrochloride]",≤ 10
248 to 249,"C1=C(CSC2=NCc3ccccc3N2)N2CCc3ccccc3N=C2S1 (as salt: hydrochloride) [Example 35, 3-(((3,4-dihydroquinazolin-2-yl)thio)methyl)-5,6-dihydrobenzo[d]thiazolo[3,2-a][1,3]diazepine dihydrochloride]",
> 250,Cl.c1ccc2c(c1)CN=C(SCc1csc3nc4ccccc4n13)N2 [Example 96],
230 to 235,"CC1(c2ccccc2)CN2C(CSC3=NCc4ccccc4N3)=CSC2=N1 (stereo not shown) (as salt: hydrochloride) [Example 38, 3-(((3,4-dihydroquinazolin-2-yl)thio)methyl)-6-methyl-6-phenyl-5,6-dihydroimidazo[2,1-b]thiazole dihydrochloride]",
240 to 244,"C1=C(CSC2=NCc3ccccc3N2)N2C(=N[C@H]3CCCC[C@@H]32)S1 (relative stereo) (as salt: hydrochloride) [Example 13, trans-3-(((3,4-dihydroquinazolin-2-yl)thio)methyl)-4a,5,6,7,8,8a-hexahydrobenzo[4,5]imidazo[2,1-b]thiazole dihydrochloride]",
127 to 134,"CC1(C)CN2C(CSC3=NCc4ccccc4CN3)=CSC2=N1 (as salt: hydrochloride) [Example 7, 3-(((2,5-dihydro-1H-benzo[e][1,3]diazepin-3-yl)thio)methyl)-6,6-dimethyl-5,6-dihydroimidazo[2,1-b]thiazole dihydrochloride]",
190 to 194,"CC1(C)N=C(SCC2=CSC3=Nc4cccc(F)c4CN23)Nc2ccccc21 (as salt: hydrochloride) [Example 73, 3-(((4,4-dimethyl-1,4-dihydroquinazolin-2-yl)thio)methyl)-6-fluoro-5H-thiazolo[2,3-b]quinazoline dihydrochloride]",
142 to 148,"C1=C(CSC2=NCc3ccccc3N2)N2CC(Cc3ccccc3)N=C2S1 (stereo not shown) (as salt: hydrochloride) [Example 65, 6-benzyl-3-(((3,4-dihydroquinazolin-2-yl)thio)methyl)-5,6-dihydroimidazo[2,1-b]thiazole dihydrochloride]",
136 to 145,"Cc1cccc(CC2CN3C(CSC4=NCc5ccccc5N4)=CSC3=N2)c1 (stereo not shown) (as salt: hydrochloride) [Example 112, 3-(((1,4-dihydroquinazolin-2-yl)thio)methyl)-6-(3-methylbenzyl)-5,6-dihydroimidazo[2,1-b]thiazole dihydrochloride]",
158 to 170,"Cc1ccc(CC2CN3C(CSC4=NCc5ccccc5N4)=CSC3=N2)cc1 (stereo not shown) (as salt: hydrochloride) [Example 122, 3-(((1,4-dihydroquinazolin-2-yl)thio)methyl)-6-(4-methylbenzyl)-5,6-dihydroimidazo[2,1-b]thiazole dihydrochloride]",
215 to 220,"C1=C(CSC2=NCc3ccccc3N2)N2CC(Cc3cccs3)N=C2S1 (stereo not shown) (as salt: hydrochloride) [Example 63, 3-(((3,4-dihydroquinazolin-2-yl)thio)methyl)-6-(thiophen-2-ylmethyl)-5,6-dihydroimidazo[2,1-b]thiazole dihydrochloride]",
177 to 182,"IC1=C(CSC2=NCc3ccccc3N2)N2CC(Cc3ccccc3)N=C2S1 (stereo not shown) (as salt: hydrochloride) [Example 110, 6-benzyl-3-(((1,4-dihydroquinazolin-2-yl)thio)methyl)-2-iodo-5,6-dihydroimidazo[2,1-b]thiazole dihydrochloride]",
